Converted amounts (≈) assume the structure as drawn. Where two headings read alike, the source gives them in different places.
Columns and labels:
[1] = system: Trypanosoma brucei brucei (Tbb, strain 427) bloodstream form; assay: Anti-trypanosomal assay (alamar blue, 72 h) on Tbb bloodstream form; assay type: cell-based; conditions: for IC50: Trypanosoma brucei, Tbb bloodstream form
Description: Trypanosoma brucei brucei, although not infecting humans because of its susceptibility to the innate immune system, has been used as a good predictive model in a first screening for the identification of anti-trypanosomal compounds [52, 53]. Bloodstream forms of this parasite (Tbb, strain 427) were grown in HMI-9 medium (IMDM-Gibco-Thermo Fisher Scientific, Merelbeke, Belgium-supplemented with 10% heat-inactivated fetal bovine serum (Sigma-Aldrich, Bornem, Belgium) and bloodstream form supporting factors).
The assay was performed in 96-well plates as previously described. The primary screening was repeated two times in triplicate at the concentrations of 50 nL/mL and 25 nL/mL (for 33 EOs) or 10 nL/mL and 5 nL/mL (for 4 EOs). Fifty µL of parasite culture (5 x 10^4 parasites/mL) was added with 50 µL of diluted EOs in each well. Ten µL of alamar blue (diluted with PBS at the ratio 1:1) was added to each well after 72 h of incubation and the plates were further incubated for 4 h. The fluorescence of the reduced reagent was measured on a spectrophotometer at 530 nm excitation and 590 nm emission wavelengths. Suramin was used as positive control. The EOs that inhibited more than 50% of the parasite growth at 25 or 10 nL/mL were analyzed for IC50 determination. Samples were tested in eight serial three-fold dilutions ranging from 50–0.02 nL/mL, except Cinnamomum cassia EO, Curcuma zedoaria EO, and Zingiber zerumbet EO (ranging from 10–0.005 nL/mL) and Dysphania ambrosioides EO (ranging from 5–0.002 nL/mL) in duplicate. IC50 values were calculated from dose response growth inhibition curves using Microsoft Excel files and mean IC50 values were obtained from at least three repetitions.

Tbb bloodstream form = conditions: cited from earlier work
[2] = Cytotoxicity assay (MTT) on J774; assay type: cell-based, murine; conditions: mouse
Description: (§1) The human non-cancer fibroblast cell line WI38 (ATCC Number CCL-75 – Standards, UK) and macrophage-like murine cell line J774 (ECACC Number 91051511 – Public Health England, UK) were grown in DMEM and RPMI medium (Gibco-Thermo Fisher Scientific, Merelbeke, Belgium or Sigma-Aldrich, Bornem, Belgium), respectively, supplemented with 10% fetal bovine serum and penicillin-streptomycin (100 UI/mL) (Sigma-Aldrich, Bornem, Belgium).
(§2) The cytotoxicity assays were performed as described previously with concentrations ranging from 50 to 1.40 nL/mL (dilution of 1.67). The selectivity index (SI) values were calculated using the formula:SI = IC50 on mammalian cells/IC50 on protozoan parasites

[3] = Cytotoxicity assay (MTT) on WI38; assay type: cell-based; conditions: human
Description: as §1, §2

Trypanosoma brucei = conditions: read-out: Anti-trypanosomal IC50; cited from earlier work
[4] = system: different human cancer cells; conditions: cited from earlier work
[5] = system: CHO, WI38, Balb/3T3 fibroblast, and J774; parameters: method as in PMID 24269775, PMID 27529211, PMID 16557466; conditions: cited from earlier work
[6] = J774 macrophage-like murine cells, pure compounds of C. longa EO, read-out: Cytotoxicity (IC50) J774
[7] = WI38 human non-cancer fibroblast cells, pure compounds of C. longa EO, read-out: Cytotoxicity (IC50) WI38
[8] = in Curcuma longa, pure compounds of C. longa EO, read-out: Anti-Trypanosomal Activity (IC50)
[9] = highest tested concentration 50 µg/mL

Which IC50 ([1]; positive control, read-out: Anti-Trypanosomal Activity (IC50)) does the source give for `Cc1ccc(C(=O)Nc2ccc(S(=O)(=O)O)c3cc(S(=O)(=O)O)cc(S(=O)(=O)O)c23)cc1NC(=O)c1cccc(NC(=O)Nc2cccc(C(=O)Nc3cc(C(=O)Nc4ccc(S(=O)(=O)O)c5cc(S(=O)(=O)O)cc(S(=O)(=O)O)c45)ccc3C)c2)c1` [Suramin, reference compound] here?
Its IC50 is 0.0215 ± 0.00262 µg/mL.

Which “Anti-trypanosomal IC50” value (Tbb bloodstream form; Tbb bloodstream form, ref 41) does the source give for `C=C1C2CCC(C2)C1(C)C` (stereo not drawn) [camphene] here?
Its value is 80.66 ± 0.87 µg/mL.

For `CC[C@@]1(O)C(=O)OCc2c1cc1n(c2=O)Cc2cc3ccccc3nc2-1` [Camptothecin, reference compound], which IC50 ([2]; J774 macrophage-like murine cells, positive control, read-out: Cytotoxicity (IC50) J774) is on record?
The IC50 was 0.00732 ± 0.00129 µg/mL (≈ 0.021 µM).

And the IC50 ([3]; WI38 human non-cancer fibroblast cells, positive control, read-out: Cytotoxicity (IC50) WI38)?
The IC50 was 0.035 ± 0.00963 µg/mL (≈ 0.1 µM).

For `COc1cc(/C=C/C(=O)CC(=O)/C=C/c2ccc(O)c(OC)c2)ccc1O` [curcumin], which IC50 (Trypanosoma brucei) is on record?
The IC50 was about 5 µM.

What does the source list for `CC(C)=CCCC(C)c1ccc(C)cc1` (stereo not drawn) [ar-Curcumene]?
IC50 [2, 6]: 24 ± 2.64 µg/mL (≈ 119 µM); IC50 [3, 7]: 23.1 ± 1.36 µg/mL (≈ 114 µM); IC50 [1, 8]: 13.4 ± 2.46 µg/mL

With `C=C(C)[C@H]1CC=C(C)CC1` [limonene] as the compound, how does the “Anti-trypanosomal IC50” value (Tbb bloodstream form; Tbb bloodstream form, ref 28) read?
Its value is 4.24 ± 1.27 µg/mL.

What about the “Anti-trypanosomal IC50” value (Tbb bloodstream form; Tbb bloodstream form, ref 29) of the same compound?
Its value is 5.6 ± 1.6 µg/mL.

Which IC50 [2, 6] does the source give for `C=C1C=CC(C(C)CC(=O)C=C(C)C)CC1` (stereo not drawn) [Curlone] here?
Its IC50 is 25.1 ± 3.47 µg/mL (≈ 115 µM).

What about the IC50 [3, 7] of the same compound?
The IC50 was 43.6 ± 2.45 µg/mL (≈ 200 µM).

And the IC50 [1, 8]?
The IC50 was 1.38 ± 0.52 µg/mL.

And the IC50 ([1]; read-out: Anti-trypanosomal IC50)?
The IC50 was 6.32 µM.

And the “SI compared to cytotoxicity” value ([1]; compared to cytotoxicity on mammalian cells (WI38 and J774))?
The value was over 10.

Which IC50 [2, 6] does the source give for `C=C1C=CC(C(C)CCC=C(C)C)CC1` (stereo not drawn) [β-Sesquiphellandrene] here?
Its IC50 is 21 ± 2.72 µg/mL (≈ 103 µM).

What about the IC50 [3, 7] of the same compound?
The IC50 was 19.1 ± 1.58 µg/mL (≈ 93.5 µM).

And the “Apoptotic effects (release of mitochondrial cytochrome c, activation of capase-3)” value ([4]; at 5.10 µg/mL)?
The value was “apoptotic effects”.

And the IC50 [1, 8]?
Its IC50 is 9.89 ± 1.18 µg/mL.

For `CC(C)=C1C/C=C(\C)CC/C=C(\C)CC1=O` [Germacrone], which “Anti-trypanosomal IC50” value (Tbb bloodstream form; Tbb bloodstream form, ref 32) is on record?
Its value is over 100 µg/mL.

Which results are given for `CC(C)=CCCC(C)CCO` (stereo not drawn) [citronellol]?
Cytotoxicity at the highest tested concentration [5, 9]: did not show any cytotoxicity; Anti-trypanosomal IC50 (Tbb bloodstream form; Tbb bloodstream form, ref 28): 6.45 ± 4.86 µg/mL

Which results are given for `CC(C)=CC(=O)CC(C)c1ccc(C)cc1` (stereo not drawn) [ar-Turmerone]?
IC50 [2]: 44.6 ± 1.41 µg/mL (≈ 206 µM); IC50 [3]: 43.4 ± 3.89 µg/mL (≈ 201 µM); Apoptotic effects (release of mitochondrial cytochrome c, activation of capase-3) ([4]; at 40, 80, and 120 µg/mL): apoptotic effects; IC50 [1, 8]: 28.8 ± 3.93 µg/mL

For `O=C(/C=C/c1ccc(O)cc1)CC(=O)/C=C/c1ccc(O)cc1` [bisdemethoxycurcumin], which IC50 (Trypanosoma brucei) is on record?
The IC50 was 9.84 ± 0.84 µM.

With `CC12CCC(CC1)C(C)(C)O2` [eucalyptol] as the compound, how does the “Anti-trypanosomal IC50” value (Tbb bloodstream form; Tbb) read?
Its value is 83.15 µg/mL.

With `CC(C)=CCC[C@@H](C)CC=O` [citronellal] as the compound, how does the “Cytotoxicity at the highest tested concentration” value [5, 9] read?
Its value is “did not show any cytotoxicity”.

What about the “Anti-trypanosomal IC50” value (Tbb bloodstream form; Tbb bloodstream form, ref 28) of the same compound?
The value was 2.76 ± 1.55 µg/mL.

With `C=CC(C)(O)CCC=C(C)C` (stereo not drawn) [linalool] as the compound, how does the “Cytotoxicity at the highest tested concentration” value ([5]; highest tested concentration 100 µg/mL) read?
Its value is “did not show any cytotoxicity”.

What about the “Anti-trypanosomal IC50” value (Tbb bloodstream form; Tbb bloodstream form, ref 30) of the same compound?
The value was 2.5 µg/mL.

For `COc1cc(/C=C/C(O)=C/C(=O)/C=C/c2ccc(O)cc2)ccc1O` [demethoxycurcumin], which IC50 (Trypanosoma brucei) is on record?
The IC50 was 7.19 ± 1.02 µM.

Source: paper PMC6471621, “Evaluation of the Anti-Trypanosomal Activity of Vietnamese Essential Oils, with Emphasis on Curcuma longa L. and Its Components” (Molecules, 2019)
